The text below walks through data of patent publication EP0794786B1, “THE USE OF INOSITOLTRI[…] THE PREPARING OF MEDICAMENTS” (Bioneris AB,, priority 1994, dated 1996).

What all share (format): in vivo
Series [1] deals with glioma tumor tissue. As to the kind of experiment: Glioma tumor growth in mice after subcutaneous inoculation of rat glial cells, IP3 via osmotic minipumps. As for the experimental part: Rat glial cells were grown in a stationary suspension culture in a medium supplemented with 15 % heat inactivated horse serum and 2.5 % heat inactivated fetal calf serum in a 5 % CO2 humidified atmosphere at 37°C.
The cells were harvested using trypsine solution and the concentration of cells were measured. The cells were centrifuged and resuspended to a concentration of 1 million cells/ml.
Twelve female specific pathogen free mice at an age of 12 weeks (weighing 20-25 g) were maintained in autoclaved cages with filter tops in horizontal air flow cabiners in a unit equipped with specific filters. Autoclaved bedding, irradiated feed and sterile water was used. The temperature and humidity was kept constant at 22 ± 2°C, 65 ± 5 % relative humidity.
To each animal 0.1 ml of the cellsuspension was inoculated subcutanousely in the right flank at day 0.
After five days, osmotic minipumps (ALZET) were surgically placed subcutanously into 7 animals, while 5 animals, shamoperated, served as a control group.
Each minipump contained approximately 200 µl of a solution of 1.0 g/2,5 ml of the sodium salt of 1-D-myo-inositol-1,2,6-trisphosphate (IP3). The minipumps gave a continous dosage of IP3 for 14 days.
The injection of glioma cells into the animals cause a growth of tumors. The growth of the tumors was examined by measuring two diameters along two perpendicular axes. The true tumor diameter was estimated as the diameter minus 0.5 mm (which is the thickness of the skin). Tumor area (A) was calculated by multiplying the two true diameters and tumor volume was calculated by the formula: /6 x A^3/2 x 0.67.

The test system of series [2] is prostate tumor tissue. Description: Prostate tumor growth in mice after subcutaneous injection of a specific cell type, IP3 via osmotic minipumps. The source says:
In a procedure similar to the one described in example 2 prostate tumor growth was induced by subcutanous injection of a specific cell type to mice. One group of animals received IP3 via osmotic minipumps while another group of animals served as a control.

Series [3] concerns Lewis lung carcinoma cells (ATCC CRL-1642). Description: Lewis lung carcinoma experiment in mice: lung weight and histological angiogenesis. As to the method: Lewis lung carcinoma cells (ATCC CRL-1642) were grown as a suspension culture in a medium with 4.5 g/l glucose with 10 % heat inactivated bovine serum in a 5 % CO2 humidified atmosphere at 37°C. The cells were subcultured by diluting cell suspensions 1:6. After harvesting by centrifugation and resuspension, the cells were counted in a counting chamber. The cells were resuspended with medium to a concentration of 10 million cells/ml.
Ten male specific pathogen free mice at an age of 6 weeks were maintained in autoclaved caves with filter tops in a barrier unit equipped with HEPA filters. Autoclaved bedding, irradiated feed and sterile filtered water was used. The temperature and humidity was kept constant (22 ± 2°C, 65 ± 5 % RH).
To each animal 0.1 ml of the cell suspension was inoculated subcutanousely in the right flank at day 0. After 15 days, osmotic minipumps (ALZET) were surgically placed subcutaneously into 5 animals while another 5 animals, sham operated, served as a control group.
Each minipump contained 226 µl of a solution of 0.4 g/ml of the sodium salt of 1-D-myo-inositol-1,2,6-trisphosphate (IP3). The minipumps gave a continous dosage of IP3 for 6 days.
The injection of lung carcinoma cells cause a formation of tumors and angiogenesis in lung tissue. The weight of the lungs after the experiment is considered as a measurement of the amount of tumor tissue which is formed.

A short description of series [4]: Toxicity after intraperitoneal injection to mice. The settings on record: 160 mg/kg body weight by intraperitoneal injection to mice.

The structures appear in SMILES notation.

As for `O=P(O)(O)O[C@@H]1[C@H](OP(=O)(O)O)[C@H](O)[C@@H](O)[C@H](O)[C@H]1OP(=O)(O)O` [IP3, D-myo-inositol-1,2,6-trisphosphate], the Tumor volume in series [1] (Day 0 (inoculation; minipumps placed after five days)) amounted to 0 mm^3; in series [1] (Day 10, sodium salt of IP3 1.0 g/2,5 ml, approx. 200 µl minipump s.c. from day 5, continuous for 14 days), 115 mm^3; in series [1] (Day 13, minipump s.c. from day 5, continuous for 14 days), 270 mm^3; in series [1] (Day 15, minipump s.c. from day 5, continuous for 14 days), 620 mm^3; in series [1] (Day 17, minipump s.c. from day 5, continuous for 14 days) it was 880 mm^3; in series [1] (Day 20, minipump s.c. from day 5, continuous for 14 days), 2420 mm^3. Further, the Tumor volume in series [2] (Day 0) turned out to be 0 mm^3; in series [2] (Day 7), 36 mm^3; in series [2] (Day 10) it was 62 mm^3; in series [2] (Day 17) it was 51 mm^3; in series [2] (Day 24) it was 95 mm^3; in series [2] (Day 28), 171 mm^3. For the same compound, in series [2] (Day 35), the Tumor volume was 215 mm^3. The “angiogenesis (histological examination)” value in series [3] (IP3 minipump s.c. after 15 days, for 6 days, compared with sham operated animals) is on record as “lower angiogenesis”. For the same compound, the mean lung weight in series [3] (sodium salt of IP3 0.4 g/ml, 226 µl minipump s.c. after 15 days, continuous for 6 days, sham operated animals 0.312 g) is listed as 0.198 g. The toxic effects entry in series [4] is on record as “no toxic effects”.
